For one series, the system named is A549-hACE2 cells. The experiment in a line: Cell viability assay in A549-hACE2 cells. Conditions: 50 μM, 48 h.
Series [1] deals with PLC/PRF/5 cells. Briefly: Acetylated H3K9 / total H3 in PLC/PRF/5 cells, Western blot. Format: cell-based. The conditions noted are these: 30 μM, 24 hours. A general note: Immunoblotting shows a protein as a band on a membrane.
The subject of a further series is SARS-CoV-2. The experiment in a line: microbe, parasite or virus in culture. The class given is cell-based.
The subject of series [2] is PLC/PRF/5 cells. Briefly: Colony formation assay in PLC/PRF/5 cells. Format: cell-based. Conditions: 30 μM, one week.
The subject of series [3] is H1299 cells. Briefly: Colony formation assay in H1299 cells. Format: cell-based. Conditions: 30 μM, one week.
Series [4] deals with T1, Sirt6 (Homo sapiens, UniProt Q8N6T7). The experiment in a line: Sirt6-dependent peptide deacetylation, FLUOR DE LYS / Sirt6 fluorometric activity kit. Format: biochemical. The conditions noted are these: mean ± SD, at least two independent experiments; for Activation Fold 30 μM: compound at 30 μM; for Activation Fold 100 μM: compound at 100 μM.
T1 sequence (Q8N6T7 whole entry): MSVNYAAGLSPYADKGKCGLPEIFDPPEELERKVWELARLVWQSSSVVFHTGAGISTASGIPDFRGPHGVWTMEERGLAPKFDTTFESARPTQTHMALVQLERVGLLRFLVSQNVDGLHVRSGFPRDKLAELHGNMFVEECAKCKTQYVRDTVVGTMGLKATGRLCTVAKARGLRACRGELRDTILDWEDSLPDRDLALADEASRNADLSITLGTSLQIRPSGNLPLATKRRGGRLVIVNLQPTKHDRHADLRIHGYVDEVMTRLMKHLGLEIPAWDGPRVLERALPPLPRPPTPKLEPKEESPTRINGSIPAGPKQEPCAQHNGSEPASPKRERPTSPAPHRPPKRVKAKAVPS
Experimental: Sirt6/Sirt1/Sirt2/Sirt3 activity was tested by Activity Assay Kits (Abcam) according to the manufacturer's instruction with minor modification. […] All experiments were conducted at room temperature.
Series [5] concerns the target T1, Sirt6. Briefly: Nucleosome test: Sirt6-dependent H3K9 deacetylation of nucleosomes from HEK293T cells, Western blot. Format: biochemical. The conditions noted are these: 100 μM, 30° C., 60 minutes. As to the method: (§1) . Nucleosomes extracted from HEK293T cells were incubated with 100 μM of selected compounds or Vehicle at 30° C. for 60 minutes. Acetylated H3K9 and total H3 were detected by Western blot. The level of acetylated H3K9 was quantified by Image Lab software. FIGS. 5B and 5C show the cell viability which was assessed by MTT assay. R28 cells were treated with 30 μM or 100 μM compounds for 24 hours. Data were presented as mean±SEM. The experiment was repeated at least three times. ***p<0.001; ****p<0.0001.
Next, effects of selected compounds were explored for Sirt6-dependent deacetylation of complete nucleosomes extracted from human embryonic kidney (HEK) 293T cells, as nucleosomes represent more physiologically relevant substrates. […]. Briefly, HEK 293T cells in 100 mm dish were lysed with lysis buffer supplemented with PIC and PMSF for 30 min. After centrifugation for 10 min at 5000 rpm at 4° C., supernatant was removed and nuclei pellet was resuspended with digestion buffer supplemented with PIC and PMSF for 5 min at 37° C. Working enzymatic sharing cocktail was added to digest the chromatin, and EDTA was added after incubation to stop the digestion. Digested nucleosome was obtained in the supernatant after centrifugation for 10 min at 15000 rpm at 4° C. and the concentration was quantified by measuring the absorbance at […]. 20 μg nucleosome was incubated in solution (1× buffer, 0.5 μL recombinant Sirt6 and […] NAD, from SIRT6 ACTIVITY ASSAY KIT) for 60 min. To test the effects of the compounds on Sirt6 activity, corresponding compound or DMSO control was added before incubation. The reaction mixture was analyzed by Western blot.
Proteins were extracted from cells with PIERCE RIPA BUFFER (89901, ThermoFisher Scientific), and protein concentration was determined using PIERCE BCA PROTEIN ASSAY KIT (23225, ThermoFisher Scientific). Equal amounts of protein were loaded and separated by SDS-PAGE gel. Next, separated proteins were transferred onto Nitrocellulose Blotting Membranes (A29457237, GE Healthcare Life science), and then the membranes were blocked by 5% non-fat dry milk. After incubation with corresponding primary antibodies against H3K9ac, H3 and Sirt6 at a 1:1000 dilution, or α-tubulin at a 1:5000 dilution, goat anti-mouse or goat anti-rabbit secondary antibodies at a 1:5000 dilution were applied. Finally, membranes were incubated with enhanced chemiluminescent and protein bands were detected by CHEMIDOC imaging system (Bio-Rad). Image-Lab software was used to analyze the intensities of the protein bands.

Another series concerns BV2 cells. The experiment in a line: LPS-induced inflammatory gene mRNA expression in BV2 cells, q-PCR. The class given is cell-based, murine. The conditions noted are these: for LPS-induced expression of IL-1β, IL-6, MCP-1, and TNFα: 30 μM pretreatment 30 minutes; for LPS-induced proinflammatory cytokine/chemokine production: summary statement.
Series [6] has as its system retinal precursor cells (R28). Briefly: MTT cell viability assay in R28 cells. The class given is cell-based. The conditions noted are these: 24 hours. As to the method:
as §1, with “FIGS. 5A-5C: FIGS. 5A-5C display the deacetylation effect and cytotoxicity of selected compounds. […] Nucleosomes” for “. Nucleosomes”
R28 cells were seeded in 96 well plates at a density of 1×10^4/well overnight, then treated with compounds for 24 h. MTT (MilliporeSigma) was added to cells (20 μL/well) and incubated for 3.5 h. After medium was removed, 100 μL dimethyl sulfoxide (DMSO) was added into each well. Absorbance was measured at 540 nm using a microplate reader.
(Tetrazolium dyes change colour on reduction, which living cells bring about.)

For another series, the target named is T2, Sirt1 (Homo sapiens, UniProt Q96EB6).
T2 sequence (Q96EB6 1-747): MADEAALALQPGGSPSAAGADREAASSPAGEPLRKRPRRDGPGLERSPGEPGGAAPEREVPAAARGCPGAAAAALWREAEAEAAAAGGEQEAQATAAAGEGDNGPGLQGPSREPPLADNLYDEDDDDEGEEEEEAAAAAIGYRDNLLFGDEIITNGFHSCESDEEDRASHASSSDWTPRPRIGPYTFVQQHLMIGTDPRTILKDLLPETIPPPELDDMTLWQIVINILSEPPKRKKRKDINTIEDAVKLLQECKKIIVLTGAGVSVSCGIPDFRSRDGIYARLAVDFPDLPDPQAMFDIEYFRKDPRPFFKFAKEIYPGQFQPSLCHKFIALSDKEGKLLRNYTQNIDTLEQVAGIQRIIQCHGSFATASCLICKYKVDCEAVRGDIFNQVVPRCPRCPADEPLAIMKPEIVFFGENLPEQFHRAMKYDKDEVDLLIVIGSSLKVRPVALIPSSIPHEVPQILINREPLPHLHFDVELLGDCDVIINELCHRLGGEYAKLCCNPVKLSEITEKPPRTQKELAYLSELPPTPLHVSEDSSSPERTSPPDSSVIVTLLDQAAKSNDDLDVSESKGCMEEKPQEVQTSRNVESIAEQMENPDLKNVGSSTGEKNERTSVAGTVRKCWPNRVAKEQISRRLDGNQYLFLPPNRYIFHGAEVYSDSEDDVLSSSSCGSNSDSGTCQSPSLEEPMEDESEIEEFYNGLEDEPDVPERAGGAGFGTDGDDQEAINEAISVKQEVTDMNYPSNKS
The experiment in a line: Sirt1 deacetylation activity assay kit. Conditions: time course, FIG. 3.

Series [7] has as its system H1299 cells. The experiment in a line: Acetylated H3K9 / total H3 in H1299 cells, Western blot. The conditions noted are these: 30 μM, 24 hours. Format: cell-based.
In a further series the test system is HCC tumor. Conditions: mouse xenograft models; literature; cited from earlier work.
Series [8] has as its system human hepatocellular carcinoma (HCC) cells. Conditions: literature, cited from earlier work.
For series [9] the following is noted: in mice; literature; cited from earlier work.
Series [10] relates to colorectal cancer (CRC) cell lines. Conditions: various CRC cell lines; literature; cited from earlier work.
The next series concerns CRC tumor. The conditions noted are these: cell line- and patient-derived xenografts, APCmin/+ spontaneous CRC model; literature; cited from earlier work. On the technique in general: Xenograft models place foreign cells or tissue in a host animal.
For series [11], the target named is T1, Sirt6. The conditions noted are these: literature value; cited from earlier work.
For another series, the system named is Sirt1, 2, and 3. The conditions noted are these: literature; cited from earlier work.
[12] abbreviates: BV2 cells, 100 ng/mL LPS 6 hours, mRNA.

Entries after “also recorded” stand apart in the source; their conditions may differ.

Consider `OCCN1CCN(c2ncccc2C2Nc3ccccc3-n3cccc32)CC1` (centres unmarked) [Compound 35, 2-(4-(3-(4,5-Dihydropyrrolo[1,2-a]quinoxalin-4-yl)pyridin-2-yl)piperazin-1-yl)ethan-1-ol], for which the “cytotoxicity at the highest tested concentration” value in the series on A549-hACE2 cells was “none of these compounds exhibited significant cytotoxicity”. Moreover, the “Sirt6 deacetylation of H3K9 (acetylated H3K9 to total H3)” value in the series with PLC/PRF/5 cells [1] and in the series on H1299 cells [7] was “no obvious influence” each time. Moreover, the “potency in inhibiting SARS-CoV-2 infection (in words)” value in the series with SARS-CoV-2 is listed as “micromolar potency”. For the same molecule, the colony formation entry in the series with PLC/PRF/5 cells [2] and in the series with H1299 cells [3] was “only a slight inhibitory effect” each time. In addition, the “Activation Fold 30 μM” value at Sirt6 [4] was determined as 2.92 ± 0.06 fold. Besides, the “Activation Fold 100 μM” value on Sirt6 [4] is 5.72 ± 0.69 fold. Further, at Sirt6 [5], the “acetylation of H3K9 in the nucleosome test” value is listed as “significantly decreased the acetylation of H3K9”. Moreover, in the series on BV2 cells (setting [12]), the “LPS-induced expression of IL-1β, IL-6, MCP-1, and TNFα” value (shortened to “LPS-induced expression of IL-1β”) is on record as “strongly inhibited”. Besides, in the series with BV2 cells (BV2 cells, 30 μM, 100 ng/mL LPS 6 hours, mRNA), the ICAM-1 induction result is “slight inhibition”. The “LPS-induced proinflammatory cytokine/chemokine production” value in the series with BV2 cells was “strongly repressed”. Further, the “toxicity on retinal precursor cells (R28)” value in series [6] (30 μM) and in series [6] (100 μM) was “no obvious toxicity” in each case. Further, the “effect on Sirt1 deacetylation” value at Sirt1 is given as “no significant effects”.
Take `COCCN1CCN(c2ncccc2C2Nc3ccccc3-n3cccc32)CC1` (centres unmarked) [Compound 36, 4-(2-(4-(2-Methoxyethyl)piperazin-1-yl)pyridin-3-yl)-4,5-dihydropyrrolo[1,2-a]quinoxaline]: the “cytotoxicity at the highest tested concentration” value with A549-hACE2 cells is “none of these compounds exhibited significant cytotoxicity”. In addition, the “Sirt6 deacetylation of H3K9 (acetylated H3K9 to total H3)” value in the series with PLC/PRF/5 cells [1] and with H1299 cells [7] was “significantly activated Sirt6 to deacetylate H3K9” in each case. Moreover, the “decrease of acetylated H3K9 when Sirt6 was knockdown by siRNA” value with PLC/PRF/5 cells [1] (Sirt6 siRNA) and in the series with H1299 cells [7] (Sirt6 siRNA) was “abolished” in each case. For the same molecule, in the series on SARS-CoV-2, the “potency in inhibiting SARS-CoV-2 infection (in words)” value is “micromolar potency”. The colony formation entry with PLC/PRF/5 cells [2] and in the series with H1299 cells [3] was “significantly inhibited; also recorded: about half” throughout. The “Activation Fold 30 μM” value at Sirt6 [4] is listed as 3.17 ± 0.21 fold. The “Activation Fold 100 μM” value at Sirt6 [4] was determined as 6.06 ± 0.13 fold. The “acetylation of H3K9 in the nucleosome test” value at Sirt6 [5] was “significantly decreased the acetylation of H3K9”. Moreover, in the series with BV2 cells (setting [12]), the “LPS-induced expression of IL-1β” value is listed as “strongly inhibited”. For the same molecule, in the series on BV2 cells, the “LPS-induced proinflammatory cytokine/chemokine production” value was “strongly repressed”. For the same molecule, the “toxicity on retinal precursor cells (R28)” value in series [6] (30 μM) and in [6] (100 μM) was “no obvious toxicity” in each case. In addition, on Sirt1, the “effect on Sirt1 deacetylation” value was “no significant effects”.
Consider `COC(=O)c1cc(NS(=O)(=O)c2cc(Cl)cc(Cl)c2)ccc1S(=O)(=O)Nc1cc(Br)c(F)cc1C` [MDL-800], for which the HCC tumor growth result with HCC tumor is listed as “suppressed HCC tumor growth”. In series [8] (human HCC cells, dose-dependently), the “H3K9 and H3K56 deacetylation” value is “significantly promoted”. Besides, the “proliferation of HCC cells” value in series [8] is reported as “inhibited their proliferation”.
`Cc1cc(F)c(Br)cc1NS(=O)(=O)c1ccc(NS(=O)(=O)c2cc(Cl)cc(Cl)c2)cc1CN1CCOC[C@H]1C` [MDL-811]: in series [9], the “bioavailability (F)” value is on record as 92.96%. The antiproliferative effects result in [10] is given as “broad antiproliferative effects”. Moreover, the anti-tumor efficacy result in the series with CRC tumor is “in vivo anti-tumor efficacy”.
Consider `c1cncc(C2Nc3ccccc3-n3cccc32)c1` (centres unmarked) [UBCS039, reference compound], for which the “potency in inhibiting SARS-CoV-2 infection (in words)” value in the series on SARS-CoV-2 is “micromolar potency”. In addition, the “maximum activation (Emax) of Sirt6 deacetylation” value on Sirt6 [11] is about 2 fold. Further, the “LPS-induced expression of IL-1β” value with BV2 cells (setting [12]) was “strongly inhibited”. For the same molecule, in the series with Sirt1, 2, and 3, the “effects on basal Sirt1, 2, and 3 deacetylation activities” value is given as “no obvious effects”.

Values taken from patent publication US20240327411A1, “SIRT6 ACTIVATORS” (The Board of Regents of The University of Texas System, priority 2022, published 2024).
